27 compounds from patent US12653814B2, “Benzimidazolone-based cinnamamide derivative as TRPV1 antagonist and pharmaceutical composition for treatment or prevention of pain containing same as active ingredient” (JMACKEM CO., LTD, priority 2020, dated 2026) can be followed below.

The target of experiment [1] is T1, human TRPV1 (hTRPV1) (Homo sapiens, UniProt Q8NER1).
T1 construct: host or cells: HEK (PrecisION hTRPV1-HEK recombinant cell line)
The experiment in a line: Ca2+ influx assay, antagonism against capsaicin in hTRPV1-HEK recombinant cells. Particulars: capsaicin 10 nM as activator, Fluo4-NW fluorescence, read-out: hTRPV1 IC50 [cap]. The format is cell-based.

For experiment [2], the target named is T1, human TRPV1 (hTRPV1). Nature of the experiment: Evaluation of human pH inhibitory activity in hTRPV1-HEK recombinant cells. Particulars: inhibition of activation at final pH 6.0, test substance 3 μM. The format is cell-based. Here is the method:
Evaluation of Human pH Inhibitory Activity
PrecisION™ hTRPV1-HEK recombinant cells (CYL3063) were purchased from Millipore and used. After culturing the above cells under the conditions of 37° C. and 5% CO2, the cells were inoculated in a 96-well plate at the density of 5×10^4 cells/well, followed by culture for 16 hours. Then, the medium was removed and 100 uL of a staining solution was put into each well, followed by culture for 30 minutes under the conditions of 37° C. and 5% CO2. After 30 minutes, all of the existing staining solution was removed and replaced with 100 uL of HBSS. Thereafter, the cells were acclimatized to room temperature for 15 minutes, and the test substances (example compounds and comparative example compounds of the present invention) were added to each well, followed by culture at room temperature for 15 minutes. Then, the final pH was adjusted to 6.0 using MES, and fluorescence was measured (ex485/em535). In the pH assay, the efficacy of the drug was evaluated using BCTC as a TRPV1 antagonist.

T1 sequence (Q8NER1 whole entry): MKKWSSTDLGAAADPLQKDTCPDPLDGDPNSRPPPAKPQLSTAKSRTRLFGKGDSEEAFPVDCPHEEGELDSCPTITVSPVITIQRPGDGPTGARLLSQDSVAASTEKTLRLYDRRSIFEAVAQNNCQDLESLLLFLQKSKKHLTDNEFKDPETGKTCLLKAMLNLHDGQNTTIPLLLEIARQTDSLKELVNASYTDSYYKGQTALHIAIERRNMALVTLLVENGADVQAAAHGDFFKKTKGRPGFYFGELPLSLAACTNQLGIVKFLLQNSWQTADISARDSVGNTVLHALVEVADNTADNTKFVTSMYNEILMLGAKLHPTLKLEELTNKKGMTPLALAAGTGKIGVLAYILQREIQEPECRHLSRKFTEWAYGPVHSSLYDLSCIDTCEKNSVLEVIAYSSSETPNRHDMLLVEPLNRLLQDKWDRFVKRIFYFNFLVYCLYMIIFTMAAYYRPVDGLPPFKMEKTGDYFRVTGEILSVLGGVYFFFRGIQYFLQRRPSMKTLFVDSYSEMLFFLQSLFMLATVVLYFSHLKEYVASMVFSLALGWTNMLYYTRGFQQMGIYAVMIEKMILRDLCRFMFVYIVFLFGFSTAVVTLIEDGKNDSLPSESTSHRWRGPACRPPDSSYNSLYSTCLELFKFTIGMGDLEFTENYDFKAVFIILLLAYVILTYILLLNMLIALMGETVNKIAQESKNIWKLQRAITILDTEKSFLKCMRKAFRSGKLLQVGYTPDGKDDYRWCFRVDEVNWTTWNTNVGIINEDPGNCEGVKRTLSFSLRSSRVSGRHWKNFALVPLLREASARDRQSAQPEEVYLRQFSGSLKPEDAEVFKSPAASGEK

By IC50 is commonly meant the concentration needed to halve the response being measured. `O=C(CCc1ccc(C(F)(F)F)nc1OCC1CC1)Nc1cccc2[nH]c(=O)[nH]c12` [Example 60, 3-(2-(cyclopropylmethoxy)-6-(trifluoromethyl)pyridin-3-yl)-N-(2-oxo-2,3-dihydro-1H-benzo[d]imidazol-4-yl)propaneamide]: the 50% inhibitory concentration (IC50) at human TRPV1 (hTRPV1) [1] was 23.7 nM. In addition, the “hTRPV1 pH (%, 3 μM)” value at human TRPV1 (hTRPV1) [2] came to 67.19%.
Take `O=C(/C=C/c1sc(C2CC2)nc1-c1cccc(Cl)c1)Nc1cccc2[nH]c(=O)[nH]c12` [Example 56, (E)-3-(4-(3-chlorophenyl)-2-cyclopropylthiazol-5-yl)-N-(2-oxo-2,3-dihydro-1H-benzo[d]imidazol-4-yl)acrylamide]: the IC50 on human TRPV1 (hTRPV1) [1] turned out to be 26 nM. The “hTRPV1 pH (%, 3 μM)” value on human TRPV1 (hTRPV1) [2] stood at 68.23%.
The like results for `O=C(/C=C/c1ccc(C(F)(F)F)nc1OCC1CCCC1)Nc1cccc2[nH]c(=O)[nH]c12` [Example 26, (E)-3-(2-(cyclopentylmethoxy)-6-(trifluoromethyl)pyridin-3-yl)-N-(2-oxo-2,3-dihydro-1H-benzo[d]imidazol-4-yl)acrylamide] were, in that order, 54.4 nM and 95.11%.
Regarding `CC(C)c1cc(/C=C/C(=O)Nc2cccc3[nH]c(=O)[nH]c23)n(-c2cccc(Cl)c2)n1` [Example 51, (E)-3-(1-(3-chlorophenyl)-3-isopropyl-1H-pyrazol-5-yl)-N-(2-oxo-2,3-dihydro-1H-benzo[d]imidazol-4-yl)acrylamide], the half-maximal inhibitory concentration (IC50) at human TRPV1 (hTRPV1) [1] was > 160 nM.
`CC(C)CSc1nc(C(F)(F)F)ccc1/C=C/C(=O)Nc1cccc2[nH]c(=O)[nH]c12` [Example 27, (E)-3-(2-(isobutylthio)-6-(trifluoromethyl)pyridin-3-yl)-N-(2-oxo-2,3-dihydro-1H-benzo[d]imidazol-4-yl)acrylamide]: the IC50 at human TRPV1 (hTRPV1) [1] stood at 40.9 nM. Besides, at human TRPV1 (hTRPV1) [2], the “hTRPV1 pH (%, 3 μM)” value is 78.45%.
As for `O=C(/C=C/c1ccc(C(F)(F)F)nc1C1CCCC1)Nc1cccc2[nH]c(=O)[nH]c12` [Example 41, (E)-3-(2-cyclopentyl-6-(trifluoromethyl)pyridin-3-yl)-N-(2-oxo-2,3-dihydro-1H-benzo[d]imidazol-4-yl)acrylamide], the IC50 at human TRPV1 (hTRPV1) [1] stood at 123 nM.
With `O=C(/C=C/c1ccc(C(F)F)nc1OCC1CC1)Nc1cccc2[nH]c(=O)[nH]c12` [Example 21, (E)-3-(2-(cyclopropylmethoxy)-6-(difluoromethyl)pyridin-3-yl)-N-(2-oxo-2,3-dihydro-1H-benzo[d]imidazol-4-yl)acrylamide], the IC50 on human TRPV1 (hTRPV1) [1] turned out to be 26.1 nM. At human TRPV1 (hTRPV1) [2], the “hTRPV1 pH (%, 3 μM)” value is 79.89%.
As for `CC(C)(C)c1ccc(/C=C/C(=O)Nc2cccc3[nH]c(=O)[nH]c23)c(OCC2CC2)n1` [Example 23, (E)-3-(6-(tert-butyl)-2-(cyclopropylmethoxy)pyridin-3-yl)-N-(2-oxo-2,3-dihydro-1H-benzo[d]imidazol-4-yl)acrylamide], on human TRPV1 (hTRPV1) [1], the IC50 was determined as 217 nM.
Turning to `CC(F)(F)c1cc(C2CC2C(=O)Nc2cccc3[nH]c(=O)[nH]c23)n(-c2cccc(Cl)c2)n1` (stereo not drawn) [Example 64, 2-(1-(3-chlorophenyl)-3-(1,1-difluoroethyl)-1H-pyrazol-5-yl)-N-(2-oxo-2,3-dihydro-1H-benzo[d]imidazol-4-yl)cyclopropane-1-carboxamide], the half-inhibitory concentration (IC50) on human TRPV1 (hTRPV1) [1] was > 160 nM.
Regarding `CC1(c2ccc(/C=C/C(=O)Nc3cccc4[nH]c(=O)[nH]c34)c(OCC3CC3)n2)CC1` [Example 20, (E)-3-(2-(cyclopropylmethoxy)-6-(1-methylcyclopropyl)pyridin-3-yl)-N-(2-oxo-2,3-dihydro-1H-benzo[d]imidazol-4-yl)acrylamide], the IC50 at human TRPV1 (hTRPV1) [1] is 53.5 nM. The “hTRPV1 pH (%, 3 μM)” value on human TRPV1 (hTRPV1) [2] was 86.79%.
For `O=C(/C=C/c1ccc(C(F)(F)F)nc1OC1CCC1)Nc1cccc2[nH]c(=O)[nH]c12` [Example 11, (E)-3-(2-cyclobutoxy-6-(trifluoromethyl)pyridin-3-yl)-N-(2-oxo-2,3-dihydro-1H-benzo[d]imidazol-4-yl)acrylamide], the IC50 on human TRPV1 (hTRPV1) [1] was determined as 37.8 nM. The “hTRPV1 pH (%, 3 μM)” value on human TRPV1 (hTRPV1) [2] was determined as 88.23%.
Take `O=C(/C=C/c1ccc(C(F)(F)F)nc1-c1cccs1)Nc1cccc2[nH]c(=O)[nH]c12` [Example 35, (E)-N-(2-oxo-2,3-dihydro-1H-benzo[d]imidazol-4-yl)-3-(2-(thiophen-2-yl)-6-(trifluoromethyl)pyridin-3-yl)acrylamide]: the half-inhibitory concentration (IC50) at human TRPV1 (hTRPV1) [1] was 11.8 nM. Further, the “hTRPV1 pH (%, 3 μM)” value on human TRPV1 (hTRPV1) [2] was 95.87%.
In the case of `CC1(c2cc(/C=C/C(=O)Nc3cccc4[nH]c(=O)[nH]c34)n(-c3cccc(Cl)c3)n2)CC1` [Example 52, (E)-3-(1-(3-chlorophenyl)-3-(1-methylcyclopropyl)-1H-pyrazol-5-yl)-N-(2-oxo-2,3-dihydro-1H-benzo[d]imidazol-4-yl)acrylamide], the IC50 on human TRPV1 (hTRPV1) [1] is > 160 nM.
In the case of `CC1(c2nc(-c3cccc(Cl)c3)c(/C=C/C(=O)Nc3cccc4[nH]c(=O)[nH]c34)s2)CC1` [Example 57, (E)-3-(4-(3-chlorophenyl)-2-(1-methylcyclopropyl)thiazol-5-yl)-N-(2-oxo-2,3-dihydro-1H-benzo[d]imidazol-4-yl)acrylamide], the IC50 on human TRPV1 (hTRPV1) [1] is 39.8 nM. For the same compound, the “hTRPV1 pH (%, 3 μM)” value at human TRPV1 (hTRPV1) [2] was 61.78%.
Turning to `O=C(/C=C/c1ccc(C2CC2)nc1OCC1CC1)Nc1cccc2[nH]c(=O)[nH]c12` [Example 18, (E)-3-(6-cyclopropyl-2-(cyclopropylmethoxy)pyridin-3-yl)-N-(2-oxo-2,3-dihydro-1H-benzo[d]imidazol-4-yl)acrylamide], the IC50 on human TRPV1 (hTRPV1) [1] is 117 nM.
On to `O=C(Nc1cccc2[nH]c(=O)[nH]c12)C1CC1c1cc(C2CC2)nn1-c1cccc(Cl)c1` (stereo not drawn) [Example 66, 2-(1-(3-chlorophenyl)-3-cyclopropyl-1H-pyrazol-5-yl)-N-(2-oxo-2,3-dihydro-1H-benzo[d]imidazol-4-yl)cyclopropane-1-carboxamide], for which the concentration for half-maximal inhibition (IC50) at human TRPV1 (hTRPV1) [1] was > 160 nM.
For the compound `CC(C)(C)CCc1nc(C(F)(F)F)ccc1/C=C/C(=O)Nc1cccc2[nH]c(=O)[nH]c12` [Example 40, (E)-3-(2-(3,3-dimethylbutyl)-6-(trifluoromethyl)pyridin-3-yl)-N-(2-oxo-2,3-dihydro-1H-benzo[d]imidazol-4-yl)acrylamide], the IC50 at human TRPV1 (hTRPV1) [1] came out at 178 nM.
Take `CC(C)c1cc(C2CC2C(=O)Nc2cccc3[nH]c(=O)[nH]c23)n(-c2cccc(Cl)c2)n1` (stereo not drawn) [Example 65, 2-(1-(3-chlorophonyl)-3-isopropyl-1H-pyrazol-5-yl)-N-(2-oxo-2,3-dihydro-1H-benzo[d]imidazol-4-yl)cyclopropane-1-carboxamide]: on human TRPV1 (hTRPV1) [1], the half-maximal inhibitory concentration (IC50) is > 160 nM.
Take `CCCCCCOc1nc(C(F)(F)F)ccc1/C=C/C(=O)Nc1cccc2[nH]c(=O)[nH]c12` [Example 9, (E)-3-(2-(hexyloxy)-6-(trifluoromethyl)pyridin-3-yl)-N-(2-oxo-2,3-dihydro-1H-benzo[d]imidazol-4-yl)acrylamide]: the concentration for half-maximal inhibition (IC50) on human TRPV1 (hTRPV1) [1] is > 50 nM.
With `O=C(/C=C/c1ccc(C(F)(F)F)nc1SCC1CC1)Nc1cccc2[nH]c(=O)[nH]c12` [Example 28, (E)-3-(2-((cyclopropylmethyl)thio)-6-(trifluoromethyl)pyridin-3-yl)-N-(2-oxo-2,3-dihydro-1H-benzo[d]imidazol-4-yl)acrylamide], the 50% inhibitory concentration (IC50) on human TRPV1 (hTRPV1) [1] is > 100 nM.
For the compound `CC(C)(C)c1cc(C2CC2C(=O)Nc2cccc3[nH]c(=O)[nH]c23)n(-c2cccc(Cl)c2)n1` (stereo not drawn) [Example 68, 2-(3-(tert-butyl)-1-(3-chlorophenyl)-1H-pyrazol-5-yl)-N-(2-oxo-2,3-dihydro-1H-benzo[d]imidazol-4-yl)cyclopropane-1-carboxamide], the IC50 at human TRPV1 (hTRPV1) [1] came out at 139 nM.
On to `CC1(c2cc(C3CC3C(=O)Nc3cccc4[nH]c(=O)[nH]c34)n(-c3cccc(Cl)c3)n2)CC1` (stereo not drawn) [Example 67, 2-(1-(3-chlorophenyl)-3-(1-methylcyclopropyl)-1H-pyrazol-5-yl)-N-(2-oxo-2,3-dihydro-1H-benzo[d]imidazol-4-yl)cyclopropane-1-carboxamide], for which the IC50 at human TRPV1 (hTRPV1) [1] was > 160 nM.
Still for that read-out and setting: to `CC(C)c1nc(-c2cccc(Cl)c2)c(/C=C/C(=O)Nc2cccc3[nH]c(=O)[nH]c23)s1` [Example 55, (E)-3-(4-(3-chlorophenyl)-2-isopropylthiazol-5-yl)-N-(2-oxo-2,3-dihydro-1H-benzo[d]imidazol-4-yl)acrylamide] belongs > 160 nM; to `O=C(/C=C/c1ccc(C(F)(F)F)nc1SC1CCCCC1)Nc1cccc2[nH]c(=O)[nH]c12` [Example 29, (E)-3-(2-(cyclohexylthio)-6-(trifluoromethyl)pyridin-3-yl)-N-(2-oxo-2,3-dihydro-1H-benzo[d]imidazol-4-yl)acrylamide], > 100 nM.
Take `CC(C)(C)c1nc(-c2cccc(Cl)c2)c(/C=C/C(=O)Nc2cccc3[nH]c(=O)[nH]c23)s1` [Example 58, (E)-3-(2-(tert-butyl)-4-(3-chlorophenyl)thiazol-5-yl)-N-(2-oxo-2,3-dihydro-1H-benzo[d]imidazol-4-yl)acrylamide]: the IC50 on human TRPV1 (hTRPV1) [1] is 103 nM.
Consider `CC(C)c1ccc(/C=C/C(=O)Nc2cccc3[nH]c(=O)[nH]c23)c(OCC2CC2)n1` [Example 19, (E)-3-(2-(cyclopropylmethoxy)-6-isopropylpyridin-3-yl)-N-(2-oxo-2,3-dihydro-1H-benzo[d]imidazol-4-yl)acrylamide], for which, at human TRPV1 (hTRPV1) [1], the concentration for half-maximal inhibition (IC50) is 410 nM.
In the case of `CC(C)(C)COc1nc(C(F)(F)F)ccc1/C=C/C(=O)Nc1cccc2[nH]c(=O)[nH]c12` [Example 15, (E)-3-(2-(neopentyloxy)-6-(trifluoromethyl)pyridin-3-yl)-N-(2-oxo-2,3-dihydro-1H-benzo[d]imidazol-4-yl)acrylamide], the IC50 on human TRPV1 (hTRPV1) [1] was 202 nM.
